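Briefly, cells in 96-well plates were exposed to five compound concentrations for 48 h, and endpoints were estimated by linear interpolation. TGI: concentration producing complete growth inhibition.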
Columns and labels:
Experiment in all cases: NCI tumour cell line growth inhibition, 48 h
SW-620 colon = tested on: SW-620 colon
SK-MEL-28 melanoma = tested on: SK-MEL-28 melanoma
NCI-H226 lung = tested on: NCI-H226 lung
SR leukemia = tested on: SR leukemia
EKVX NSCLC = tested on: EKVX NSCLC
M14 melanoma = tested on: M14 melanoma
MALME-3M melanoma = tested on: MALME-3M melanoma
OVCAR-3 ovarian = tested on: OVCAR-3 ovarian
HT29 colon = tested on: HT29 colon
HCT-116 colon = tested on: HCT-116 colon
BT-549 breast = tested on: BT-549 breast

Compound | TGI (SW-620 colon) [µM] | TGI (SK-MEL-28 melanoma) [µM] | TGI (NCI-H226 lung) [µM] | TGI (SR leukemia) [µM] | TGI (EKVX NSCLC) [µM] | TGI (M14 melanoma) [µM] | TGI (MALME-3M melanoma) [µM] | TGI (OVCAR-3 ovarian) [µM] | TGI (HT29 colon) [µM] | TGI (HCT-116 colon) [µM] | TGI (BT-549 breast) [µM]
CC/C(Cl)=N\OC(=O)Nc1ccc(C#N)cc1 | 11.7 | 33.8 | 30.9 | 22.7 | 26.3 | 24.8 | 8.25 | 32.7 | 36.9 | 28.1 | 28.3
O=C(/C=C/c1ccc(O)c(O)c1)OCCOC(=O)/C=C/c1ccc(O)c(O)c1 | > 100 | > 100 | 96.3 | 58.9 | 83.1 | 28.5 | > 100 | 39 | 43.4 | 46.7 | > 100
O=C1OC(CN2CCN(c3ccccc3)CC2)CN1C(=S)Nc1ccccc1 (configuration not stated) | > 100 | > 100 | > 100 | > 100 | > 100 | > 100 | > 100 | > 100 | > 100 | > 100 | > 100
CC1=C(C(=O)OC(C)C)C(c2ccccc2[N+](=O)[O-])C(C(=O)OC(CO[N+](=O)[O-])CO[N+](=O)[O-])=C(C)N1 (configuration not stated) | 18.9 | 17.9 | 28.5 | > 100 | 18.8 | 14.3 | 23.6 | 76.7 | 7.98 | 11.4 | 26
N#Cc1c(NC(=S)NCc2ccccc2)sc2c1CCN(N1CCc3c(sc(NC(=S)NCc4ccccc4)c3C#N)C1)C2 | > 100 | > 100 | > 100 | > 100 | > 100 | > 100 | > 100 | > 100 | > 100 | > 100 | > 100
COc1nc(=O)n(C2CC(N=[N+]=[N-])C(CO)O2)cc1C (configuration not stated) | > 100 | > 100 | > 100 | > 100 | > 100 | > 100 | > 100 | > 100 | > 100 | > 100 | > 100
Nc1c(C(=O)c2ccccc2)[nH]c(NCc2ccccc2)c1C(=S)Nc1ccccc1 | > 100 | > 100 | > 100 | > 100 | > 100 | > 100 | > 100 | > 100 | > 100 | > 100 | > 100

Reference: PubChem BioAssay (NCI)
